# Test results from patent US9877962B2, “Piperazinyl derivatives for the treatment of cancer” (priority 2011, dated 2018).
# How the values were obtained:
# [1] = tested on: 3 human cancer cell lines established from Head & Neck (HNSCC); test: MTT cell proliferation assay on HNSCC cell lines; type: cell-based; details: MTT assay after 72 hours of treatment, FIG. 2
# Experimental: (§1) Compound I-43b has been tested in 3 human cancer cell lines established from Head & Neck (HNSCC) and in 4 human cancer cell lines established hepatocarcinoma (HCC). […] Cell proliferation has been evaluated using the MTT assay after 72 hours of treatment.
# [2] = tested on: 4 human cancer cell lines established hepatocarcinoma (HCC); test: MTT cell proliferation assay on HCC cell lines; type: cell-based; details: MTT assay after 72 hours of treatment, FIG. 2
# Experimental: as §1
# NCI 60 cell lines = test: NCI 60 tumor cell line panel (SRB); type: cell-based, human; details: concentration of 10 μM, 48 h, FIG. 3
# Experimental: Compound I-43b has been tested in the NCI 60 cell line panel. This screen utilizes 60 different human tumor cell lines, representing leukemia, melanoma, lung cancer, colon cancer, CNS cancer, ovarian cancer, breast cancer, prostate cancer and renal cancer.
# The 60 human tumor cell lines of the cancer screening panel are grown in RPMI 1640 medium containing 5% fetal bovine serum and 2 mM L-glutamine. For a typical screening experiment, cells are inoculated into 96 well microtiter plates in 100 μL at plating densities ranging from 5,000 to 40,000 cells/well depending on the doubling time of individual cell lines. […]
# Following drug addition, the plates are incubated for an additional 48 h at 37° C., 5% CO2, 95% air, and 100% relative humidity. […] Bound stain is subsequently solubilized with 10 mM trizma base, and the absorbance is read on an automated plate reader at a wavelength of 515 nm. […] Using the seven absorbance measurements [time zero (Tz), control growth (C), and test growth in the presence of drug at the five concentration levels (Ti)], the percentage growth is calculated at each of the drug concentrations levels. Percentage growth inhibition is calculated as: [(Ti−Tz)/(C−Tz)]×100 for concentrations for which Ti>/=Tz [(Ti−Tz)/Tz]×100 for concentrations for which Ti<Tz.
# Three dose response parameters are calculated for each experimental agent. […]
compound,measurement,setting,value
"Cc1cc(Oc2ccccc2)ccc1N(C(=O)CCl)[C@H](C(=O)N1CCN[C@@H](C)C1)c1cccs1 (single isomer, unassigned) [Example I-43b]","cell proliferation inhibition, HNSCC cell lines",[1],inhibited cell proliferation in a concentration dependent manner
same,"cell proliferation inhibition, HCC cell lines",[2],inhibited cell proliferation in a concentration dependent manner
same,"growth inhibition of NCI 60 tumor cell lines, single dose screen",NCI 60 cell lines,selective growth inhibition on all these tumor cell lines
